Molecular target: VEGF-receptor 2 and PDGF-receptor beta (KDR and PDGFR beta) (Homo sapiens) (UniProt P09619+P35968)
Test: Selectivity for Vascular endothelial growth factor receptor 2 over Platelet-derived growth factor receptor beta
Format: protein assay
Conditions: not given

Sequence of VEGF-receptor 2 and PDGF-receptor beta (KDR and PDGFR beta) (Homo sapiens) (P09619 whole entry, looked up): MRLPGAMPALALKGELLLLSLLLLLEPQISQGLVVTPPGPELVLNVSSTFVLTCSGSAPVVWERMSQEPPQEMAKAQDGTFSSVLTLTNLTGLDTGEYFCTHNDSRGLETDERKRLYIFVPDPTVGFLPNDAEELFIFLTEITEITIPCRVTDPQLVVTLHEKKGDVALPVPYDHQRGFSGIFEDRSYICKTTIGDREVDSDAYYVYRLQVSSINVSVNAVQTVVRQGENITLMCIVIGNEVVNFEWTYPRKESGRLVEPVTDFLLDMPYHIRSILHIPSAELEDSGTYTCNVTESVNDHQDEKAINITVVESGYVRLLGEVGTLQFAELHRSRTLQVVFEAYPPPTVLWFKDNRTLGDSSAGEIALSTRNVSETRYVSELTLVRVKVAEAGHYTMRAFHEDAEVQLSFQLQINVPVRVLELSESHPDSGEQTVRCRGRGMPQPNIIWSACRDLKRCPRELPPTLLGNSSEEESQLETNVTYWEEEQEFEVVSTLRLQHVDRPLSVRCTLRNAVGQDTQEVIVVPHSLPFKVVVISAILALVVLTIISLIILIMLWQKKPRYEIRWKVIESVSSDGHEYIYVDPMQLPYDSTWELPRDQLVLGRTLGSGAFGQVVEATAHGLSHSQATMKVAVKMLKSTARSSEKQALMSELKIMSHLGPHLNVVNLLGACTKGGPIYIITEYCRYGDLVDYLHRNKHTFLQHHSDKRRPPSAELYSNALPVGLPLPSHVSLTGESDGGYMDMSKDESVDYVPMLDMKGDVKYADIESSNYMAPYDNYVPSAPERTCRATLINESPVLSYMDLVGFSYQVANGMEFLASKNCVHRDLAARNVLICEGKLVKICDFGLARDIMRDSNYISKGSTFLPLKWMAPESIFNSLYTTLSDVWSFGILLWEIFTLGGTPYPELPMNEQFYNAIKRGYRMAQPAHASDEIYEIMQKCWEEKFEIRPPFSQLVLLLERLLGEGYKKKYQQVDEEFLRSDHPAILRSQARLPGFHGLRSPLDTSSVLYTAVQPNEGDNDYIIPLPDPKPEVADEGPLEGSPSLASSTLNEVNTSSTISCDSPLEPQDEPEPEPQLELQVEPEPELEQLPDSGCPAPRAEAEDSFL
Sequence of VEGF-receptor 2 and PDGF-receptor beta (KDR and PDGFR beta) (Homo sapiens) (P35968 whole entry, looked up): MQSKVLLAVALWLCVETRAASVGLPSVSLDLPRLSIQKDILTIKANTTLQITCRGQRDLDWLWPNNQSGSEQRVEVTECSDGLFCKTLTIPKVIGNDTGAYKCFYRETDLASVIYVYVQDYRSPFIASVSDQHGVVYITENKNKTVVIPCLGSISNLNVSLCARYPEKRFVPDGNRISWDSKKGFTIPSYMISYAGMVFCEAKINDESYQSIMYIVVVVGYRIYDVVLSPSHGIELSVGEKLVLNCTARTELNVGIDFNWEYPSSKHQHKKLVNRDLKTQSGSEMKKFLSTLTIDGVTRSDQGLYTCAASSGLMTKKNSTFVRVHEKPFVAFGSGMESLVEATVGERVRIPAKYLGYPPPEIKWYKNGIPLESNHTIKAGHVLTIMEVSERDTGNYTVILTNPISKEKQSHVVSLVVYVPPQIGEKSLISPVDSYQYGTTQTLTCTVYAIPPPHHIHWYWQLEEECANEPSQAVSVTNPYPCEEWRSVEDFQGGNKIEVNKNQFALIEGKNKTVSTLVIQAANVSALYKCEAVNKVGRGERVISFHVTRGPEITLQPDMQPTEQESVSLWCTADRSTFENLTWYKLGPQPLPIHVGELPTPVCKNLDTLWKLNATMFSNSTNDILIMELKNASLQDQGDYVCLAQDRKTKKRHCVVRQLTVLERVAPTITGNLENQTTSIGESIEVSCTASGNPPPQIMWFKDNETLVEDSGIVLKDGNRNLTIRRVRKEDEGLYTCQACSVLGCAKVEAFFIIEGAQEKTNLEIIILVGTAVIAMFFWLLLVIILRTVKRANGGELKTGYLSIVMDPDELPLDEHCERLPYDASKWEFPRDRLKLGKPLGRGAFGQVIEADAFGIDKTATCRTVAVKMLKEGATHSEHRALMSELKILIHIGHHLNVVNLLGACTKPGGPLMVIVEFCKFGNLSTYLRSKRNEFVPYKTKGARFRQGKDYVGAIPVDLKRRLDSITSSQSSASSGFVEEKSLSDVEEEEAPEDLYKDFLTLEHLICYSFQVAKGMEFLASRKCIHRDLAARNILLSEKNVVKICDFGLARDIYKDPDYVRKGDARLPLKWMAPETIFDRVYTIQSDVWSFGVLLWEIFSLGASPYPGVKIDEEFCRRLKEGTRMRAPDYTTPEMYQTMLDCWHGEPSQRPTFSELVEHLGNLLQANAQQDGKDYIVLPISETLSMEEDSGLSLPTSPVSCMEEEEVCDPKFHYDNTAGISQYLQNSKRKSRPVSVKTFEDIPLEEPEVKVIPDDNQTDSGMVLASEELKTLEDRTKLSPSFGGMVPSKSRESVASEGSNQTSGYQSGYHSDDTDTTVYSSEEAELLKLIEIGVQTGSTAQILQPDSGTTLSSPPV

Structure (SMILES)	Ratio
COc1ccc(-c2cnc3c(-c4ccncc4)cnn3c2)cc1	0.5

Molecular target: VEGF-receptor 2 and tyrosine-protein kinase SRC (Homo sapiens) (UniProt P12931+P35968)
Test: Selectivity for Vascular endothelial growth factor receptor 2 over c-Src kinase
Format: protein assay
Conditions: not given

Sequence of VEGF-receptor 2 and tyrosine-protein kinase SRC (Homo sapiens) (P12931 whole entry, looked up): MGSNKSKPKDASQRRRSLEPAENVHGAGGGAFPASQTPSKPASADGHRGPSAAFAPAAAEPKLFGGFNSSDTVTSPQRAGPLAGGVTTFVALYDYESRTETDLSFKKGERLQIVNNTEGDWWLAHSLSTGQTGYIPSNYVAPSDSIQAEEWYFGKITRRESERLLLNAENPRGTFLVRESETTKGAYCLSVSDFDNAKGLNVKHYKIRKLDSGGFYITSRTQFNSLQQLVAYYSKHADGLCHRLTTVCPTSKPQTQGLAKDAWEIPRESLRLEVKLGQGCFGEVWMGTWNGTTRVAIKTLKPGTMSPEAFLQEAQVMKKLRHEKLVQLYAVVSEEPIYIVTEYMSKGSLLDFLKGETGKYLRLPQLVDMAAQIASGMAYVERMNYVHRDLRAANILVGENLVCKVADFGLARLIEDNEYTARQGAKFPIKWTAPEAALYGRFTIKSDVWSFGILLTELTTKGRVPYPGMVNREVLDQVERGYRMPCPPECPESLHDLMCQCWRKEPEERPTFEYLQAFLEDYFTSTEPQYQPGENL
Sequence of VEGF-receptor 2 and tyrosine-protein kinase SRC (Homo sapiens) (P35968 whole entry, looked up): as the sequence (P35968 whole entry, looked up) above

Structure (SMILES)	Ratio
COc1ccc(-c2cnc3c(-c4ccncc4)cnn3c2)cc1	27

Molecular target: Vascular endothelial growth factor receptor 2 (Homo sapiens, UniProt P35968)
Sequence (P35968 whole entry): as the sequence (P35968 whole entry, looked up) above
Test: Inhibitory activity at VEGF-2 receptor.
Conditions: not given

Structure (SMILES)	IC50
Clc1ccc(-c2cnc3c(-c4ccncc4)cnn3c2)cc1	0.113 µM
c1cc(-c2cnn3cc(C4CCCCC4)cnc23)cs1	0.28 µM
Fc1ccc(-c2cnn3cc(-c4ccncc4)cnc23)cc1Cl	0.265 µM
COc1cccc(-c2cnn3cc(-c4ccncc4)cnc23)c1	0.51 µM
C1=C(c2cnn3cc(-c4ccncc4)cnc23)CCCC1	0.041 µM
Fc1ccc(-c2cnn3cc(-c4ccncc4)cnc23)cc1	0.063 µM
c1ccc(-c2cnn3cc(-c4ccncc4)cnc23)cc1	0.071 µM
c1ccc(-c2cnn3cc(-c4ccccn4)cnc23)cc1	0.088 µM
Clc1cccc(-c2cnn3cc(-c4ccncc4)cnc23)c1	0.35 µM
Cc1ccc(-c2cnc3c(-c4ccncc4)cnn3c2)cc1	0.062 µM
COc1ccc(-c2cnc3c(-c4cccnc4)cnn3c2)cc1	0.041 µM
COc1ccc(-c2cnc3c(-c4ccccn4)cnn3c2)cc1	1 µM
C1=C(c2cnn3cc(-c4ccncc4)cnc23)CCC1	0.028 µM

Molecular target: Vascular endothelial growth factor receptor 2 and 3 (KDR and Flt-4) (Homo sapiens) (UniProt P35916+P35968)
Sequence (P35916 whole entry, looked up): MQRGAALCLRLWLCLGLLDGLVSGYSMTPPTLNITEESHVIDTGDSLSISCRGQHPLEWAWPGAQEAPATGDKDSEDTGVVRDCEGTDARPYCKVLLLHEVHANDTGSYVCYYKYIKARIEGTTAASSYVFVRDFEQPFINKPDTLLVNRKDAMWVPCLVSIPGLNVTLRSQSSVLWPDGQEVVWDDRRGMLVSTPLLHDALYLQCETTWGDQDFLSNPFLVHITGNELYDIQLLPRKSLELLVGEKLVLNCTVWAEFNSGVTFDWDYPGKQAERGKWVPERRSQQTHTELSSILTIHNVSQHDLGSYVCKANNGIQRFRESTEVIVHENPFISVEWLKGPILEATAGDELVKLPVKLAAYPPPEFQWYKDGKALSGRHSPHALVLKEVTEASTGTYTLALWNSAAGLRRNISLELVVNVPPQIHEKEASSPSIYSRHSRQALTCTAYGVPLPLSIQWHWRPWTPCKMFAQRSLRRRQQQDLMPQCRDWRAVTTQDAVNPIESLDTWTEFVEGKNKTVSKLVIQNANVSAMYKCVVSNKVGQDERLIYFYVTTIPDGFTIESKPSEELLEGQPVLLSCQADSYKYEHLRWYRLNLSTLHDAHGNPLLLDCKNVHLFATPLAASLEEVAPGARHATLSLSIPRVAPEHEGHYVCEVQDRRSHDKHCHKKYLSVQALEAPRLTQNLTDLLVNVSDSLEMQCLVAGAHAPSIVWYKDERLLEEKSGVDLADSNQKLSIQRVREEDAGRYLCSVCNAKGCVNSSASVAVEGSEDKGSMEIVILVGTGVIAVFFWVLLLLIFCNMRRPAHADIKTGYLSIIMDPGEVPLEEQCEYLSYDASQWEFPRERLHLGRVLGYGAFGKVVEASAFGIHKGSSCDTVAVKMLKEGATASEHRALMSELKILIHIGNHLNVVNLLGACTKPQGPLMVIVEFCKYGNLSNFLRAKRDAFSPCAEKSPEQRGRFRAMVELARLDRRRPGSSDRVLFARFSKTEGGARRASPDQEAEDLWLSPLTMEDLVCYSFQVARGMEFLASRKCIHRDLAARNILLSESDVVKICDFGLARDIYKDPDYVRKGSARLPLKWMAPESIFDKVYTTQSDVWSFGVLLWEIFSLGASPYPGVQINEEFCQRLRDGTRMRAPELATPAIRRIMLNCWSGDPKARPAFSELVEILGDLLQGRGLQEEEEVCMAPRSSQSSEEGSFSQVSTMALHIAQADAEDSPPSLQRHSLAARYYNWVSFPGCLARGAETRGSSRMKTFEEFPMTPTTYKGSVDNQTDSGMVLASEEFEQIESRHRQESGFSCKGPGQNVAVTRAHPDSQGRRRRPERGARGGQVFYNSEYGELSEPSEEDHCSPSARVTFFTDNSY
Sequence (P35968 whole entry, looked up): as the sequence (P35968 whole entry, looked up) above
Test: Selectivity for VEGF-receptor 2 (KDR) over Vascular endothelial growth factor receptor 3 (FLT4)
Format: protein assay
Conditions: not given

Structure (SMILES)	Ratio
COc1ccc(-c2cnc3c(-c4ccncc4)cnn3c2)cc1	2.2

Tested on: not listed separately
Test: Partition coefficient (logP)
Format: physicochemical
Conditions: octanol/water

Structure (SMILES)	logP
c1cc(-c2cnc3c(-c4ccncc4)cnn3c2)ccn1	2.5
COc1ccc(-c2cnc3c(-c4ccsc4)cnn3c2)cc1	> 4
COc1ccc(-c2cnc3c(-c4ccncc4)cnn3c2)cc1	4

Molecular target: Vascular endothelial growth factor receptor (Homo sapiens, UniProt P17948+P35916+P35968)
Conditions: endothelial cell
Description: Inhibition of VEGF-stimulated mitogenesis in human umbilical vein endothelial cells

Structure (SMILES)	IC50
c1cc(-c2cnc3c(-c4ccsc4)cnn3c2)ccn1	0.127 µM
